Test results: patent publication US6552022B1, “Benzamide derivatives and their use as ApoB-100 secretion inhibitors” (SmithKline Beecham Corporation, priority 1998, dated 2003)

`O=C(Nc1ccc(N2CCN(Cc3cccs3)CC2)cc1)c1ccccc1-c1ccc(C(F)(F)F)cc1` [Example 70, 4′-Trifluoromethyl-biphenyl-2-carboxylic acid [4-(4-thiophen-2-ylmethyl-piperazin-1-yl)-phenyl]-amide] showed a melting point of 181 to 183 °C.
`N#Cc1cccc(CN2CCC(c3ccc(NC(=O)c4ccccc4-c4ccc(C(F)(F)F)cc4)cc3)CC2)c1` [Example 84, 4′-Trifluoromethyl-biphenyl-2-carboxylic Acid (4-[1-(3-cyano-benzyl)-piperidin-4-yl]-phenyl]-amide] gave a melting point of 124 to 126 °C.
Work on `O=C(Nc1ccc(N2CCN(CCCO)CC2)cc1)c1ccccc1-c1ccc(C(F)(F)F)cc1` [Example 44, 4′-Trifluoromethyl-biphenyl-2-carboxylic acid [4-(4-(3-hydroxy-propyl)-piperazin-1-yl]-phenyl]-amide] yielded a melting point of 208 to 210 °C.
For `O=C(Nc1ccc(N2CCN(Cc3nccs3)CC2)cc1)c1ccccc1-c1ccc(C(F)(F)F)cc1` (hydrate or solvate) [Example 59, 4′-Trifluoromethyl-biphenyl-2-carboxylic acid [4-(4-thiazol-2-ylmethyl-piperazin-1-yl)-phenyl]-amide], the melting point was 187 to 189 °C.
Work on `O=C(Nc1ccc(N2CCN(Cc3cnccn3)CC2)cc1)c1ccccc1-c1ccc(C(F)(F)F)cc1` [Example 58, 4′-Trifluoromethyl-biphenyl-2-carboxylic acid [4-(4-pyrazin-2-ylmethyl-piperazin-1-yl)-phenyl]-amide] yielded a melting point of 183 to 185 °C.
For `O=C(Nc1ccc(N2CCN(Cc3ccco3)CC2)cc1)c1ccccc1-c1ccc(C(F)(F)F)cc1` [Example 67, 4′-Trifluoromethyl-biphenyl-2-carboxylic acid [4-(4-furan-2-ylmethyl-piperazin-1-yl)-phenyl]-amide], the melting point was 173 to 175 °C.
For `CCOC(=O)CN1CCN(c2ccc(NC(=O)c3ccccc3-c3ccc(C(F)(F)F)cc3)cc2)CC1` [Example 42, 4′-Trifluoromethyl-biphenyl-2-carboxylic acid [4-(4-ethoxycarbonylmethyl-piperazin-1-yl)-phenyl)-amide], the melting point was 167 to 169 °C.
Work on `COc1ccc(-c2ccccc2C(=O)Nc2ccc(N3CCN(Cc4cccc(C#N)c4)CC3)cc2)cc1` yielded a melting point of 124 to 128 °C.
With `N#Cc1cccc(CN2CCN(c3ccc(NC(=O)c4ccccc4-c4ccc(F)cc4)cc3)CC2)c1` [Example 23, 4′-Fluoro-biphenyl-2-carboxylic acid [4-[4-(3-cyano-benzyl)-piperazin-1-yl]-phenyl]-amide] the melting point was 200 to 202 °C.
In the case of `N#Cc1cccc(CN2CCN(c3ccc(NC(=O)c4ccccc4OCc4ccc(C(F)(F)F)cc4)cc3)CC2)c1` [Example 27, N-[4-[4-(3-Cyano-benzyl)-piperazin-1-yl]-phenyl]-2-(4-trifluoromethyl-benzyloxy)-benzamide], the melting point is reported as 190 to 191 °C.
For `CCOCCN1CCN(c2ccc(NC(=O)c3ccccc3-c3ccc(C(F)(F)F)cc3)cc2)CC1` [Example 43, 4′-Trifluoromethyl-biphenyl-2-carboxylic acid [4-(4-(2-ethoxy-ethyl)-piperazin-1-yl]-phenyl]-amide], the melting point was 176 to 178 °C.
`O=C(NCC(F)(F)F)c1cccc(CN2CCN(c3ccc(NC(=O)c4ccccc4-c4ccc(C(F)(F)F)cc4)cc3)CC2)c1` [Example 79, 4′-Trifluoromethyl-biphenyl-2-carboxylic Acid (4-{4-[3-(2,2,2-trifluoro-ethylcarbamoyl)-benzyl]-piperazin-1-yl}-phenyl)-amide] gave a melting point of 205 to 207 °C.
Compound `N#Cc1cccc(S(=O)(=O)N2CCN(c3ccc(NC(=O)c4ccccc4-c4ccc(C(F)(F)F)cc4)cc3)CC2)c1` [Example 82, 4′-Trifluoromethyl-biphenyl-2-carboxylic Acid [4-[4-(3-cyano-benzenesulfonyl)-piperazin-1-yl]-phenyl]-amide] has a melting point of 223 °C.
Work on `Cn1ccnc1CN1CCN(c2ccc(NC(=O)c3ccccc3-c3ccc(C(F)(F)F)cc3)cc2)CC1` [Example 60, 4′-Trifluoromethyl-biphenyl-2-carboxylic acid [4-[4-(1-methyl-1H-imidazol-2-ylmethyl)-piperazin-1-yl)-phenyl]-amide] yielded a melting point of 118 to 120 °C.
For `COc1ccc(-c2ccc(C(C)C)cc2)c(C(=O)Nc2ccc(N3CCN(CC(N)=O)CC3)cc2)c1` [Example 38, 4′-Isopropyl-4-methoxy-biphenyl-2-carboxylic Acid [4-(4-carbamoylmethyl-piperazin-1-yl)-phenyl]-amide], the melting point was 207 to 209 °C.
For `O=C(Nc1ccc(N2CCN(Cc3ccc(F)cc3)CC2)cc1)c1ccccc1-c1ccc(C(F)(F)F)cc1` [Example 52, 4′-Trifluoromethyl-biphenyl-2-carboxylic acid [4-[4-(4-fluoro-benzyl)-piperazin-1-yl]-phenyl]-amide], the melting point was 198 to 200 °C.
With `CC(=O)c1cccc(CN2CCN(c3ccc(NC(=O)c4ccccc4-c4ccc(C(F)(F)F)cc4)cc3)CC2)c1` [Example 66, 4′-Trifluoromethyl-biphenyl-2-carboxylic acid [4-(4-(3-acetyl-benzyl)-piperazin-1-yl)-phenyl]-amide] the melting point was 181 to 183 °C.
For `Cc1ccc(C(=O)Nc2ccc(N3CCN(Cc4cccc(C#N)c4)CC3)cc2)c(-c2ccc(C(F)(F)F)cc2)c1` [Example 9, 5-Methyl-4′-trifluoromethyl-biphenyl-2-carboxylic acid [4-[4-(3-cyano-benzyl)-piperazin-1-yl]-phenyl]-amide], the melting point was 166 to 168 °C.
`O=C(Nc1ccc(N2CCN(Cc3cccc(-c4noc(C(F)(F)F)n4)c3)CC2)cc1)c1ccccc1-c1ccc(C(F)(F)F)cc1` [Example 75, 4′-Trifluoromethyl-biphenyl-2-carboxylic acid (4-{4-[3-(5-trifluoromethyl-[1,2,4]oxadiazol-3-yl)-benzyl]-piperazin-1-yl}-phenyl)-amide] showed a melting point of 188 to 190 °C.
Work on `CCCN1CCN(c2ccc(NC(=O)c3ccccc3-c3ccc(C(F)(F)F)cc3)cc2)CC1` [Example 65, 4′-Trifluoromethyl-biphenyl-2-carboxylic acid [4-(4-propyl-piperazin-1-yl)-phenyl]-amide] yielded a melting point of 207 to 209 °C.
Compound `N#Cc1cccc(CN2CCN(c3ccc(NC(=O)c4ccccc4Oc4ccccc4)cc3)CC2)c1` (hydrate or solvate) [Example 14, N-[4-[4-(3-Cyano-benzyl)-piperazin-1-yl]-phenyl]-2-phenoxy-benzamide] has a melting point of 133 to 134 °C.
Compound `CCc1ccc(-c2ccccc2C(=O)Nc2ccc(N3CCN(Cc4cccc(C#N)c4)CC3)cc2)cc1` has a melting point of 118 to 122 °C.
Work on `CC(C)c1ccc(-c2cc(Cl)ccc2C(=O)Nc2ccc(N3CCN(Cc4cccc(C#N)c4)CC3)cc2)cc1` [Example 7, 5-Chloro-4′-isopropyl-biphenyl-2-carboxylic acid [4-[4-(3-cyano-benzyl)-piperazin-1-yl]-phenyl]-amide] yielded a melting point of 188 to 190 °C.
For `O=C(Nc1ccc(N2CCN(Cc3ccccn3)CC2)cc1)c1ccccc1-c1ccc(C(F)(F)F)cc1` (hydrate or solvate), the melting point was 168 to 170 °C.
`CC(=O)N1CCN(c2ccc(NC(=O)c3ccccc3-c3ccc(C(F)(F)F)cc3)cc2)CC1` [Example 81, 4′-Trifluoromethyl-biphenyl-2-carboxylic Acid [4-(4-acetyl-piperazin-1-yl)-phenyl]-amide] showed a melting point of 175 to 176.5 °C.
